Experimental data from patent publication US20100150944A1, “METHODS AND COMPOSITIONS FOR DIAGNOSIS AND TREATMENT OF DEPRESSION AND ANXIETY” (MODGENE, LLC, priority 2007, published 2010).

How the values were obtained:
C57BL/6J mice [1] = assay: forced-swim test, C57BL/6J mice; type: in vivo, mouse; settings: for immobility in forced-swim test: last 4 minutes of 6-minute test
Method: Briefly, in the Porsolt forced swim test, swim sessions are conducted by placing animals in containers with a level of water selected to be deep enough so that the animal cannot touch the bottom with its hind limbs or tail, nor can it escape. Two swim sessions are conducted, an initial 15 minute pretest one day prior to administration of the antidepressant drug and a second 5 minute test after administration of the drug (e.g., infusion of the drug into the midbrain) is begun. Each animal's 5 minute test sessions are videotaped for scoring later. The amount of time the animal spends active (swimming, exploring or trying to escape) and the time the rat is immobile (not struggling and making only those movements necessary to keep its head above water) is measured. Drugs with anti-depressant like activity decrease the immobility time.
(§1) As described above, the murine responses in forced swim and tail suspension tests provides a model for determining depression. We tested C57BL/6J and DBA/2J mice in the forced-swim and tail-suspension tests. In the forced-swim test, mice were gently placed in a clear plastic cylinder, diameter of 16 cm, height 25 cm, filled with 10 cm of clear water at 25° C. Test duration was 6 minutes and immobility, defined as the absence of all movement except minor movement required for the mouse to keep its head above the surface, was measured during the last 4 minutes. In the tail-suspension test, mice were suspended from a metal rod mounted 50 cm above the surface by fastening the tail to the rod with adhesive tape. The duration of the test was 6 minutes and immobility, defined as the absence of all but respiratory movements, was measured during the last 4 minutes. During the last 4 minutes of a 6-minute forced swim, unmedicated inbred C57BL/6J mice spent 152 seconds of the possible 240 seconds immobile (FIG. 2). In contrast, inbred DBA/2J mice had baseline (unmedicated) immobilities of 47 seconds (see FIG. 2). […] We investigated the hypothesis that the differences between these two inbred mouse lines that result in differing baseline immobilities in the forced-swim test at least in part arise from differences in the amount of mRNA that accumulates from specific genes.
We purchased some of the compound (Toronto Research Chemicals Inc., 2 Brisbane Rd., North York, Ontario, Canada M3J 2J8) and dissolved it in phosphate-buffered saline (PBS) containing 2.5 percent methanol.
When plain PBS/methanol solution (without 3Ac-SL0101) was administered to C57BL/6J mice, their immobility was 127 seconds. When the solution containing the 3Ac-SL0101 compound was administered in a very low dose, their immobility was reduced to 78 seconds, indicative of an antidepressant-like effect. […] When the compound was administered to DBA/2J mice, it was effective at an approximately 10-fold lower dose than in C57BL/6J mice, highly consistent with the notion that it is functioning by reducing the activity of rpS6.

RSK2 = RSK2 (Homo sapiens, UniProt P51812); settings: cited from earlier work
p90 RSK = settings: cited from earlier work
DBA/2J mice [2] = assay: forced-swim test, DBA/2J mice; type: in vivo, mouse; settings: DBA/2J mice versus C57BL/6J mice
Method: as §1, with “genes. […]” for “genes.”

[3] = test system: p90 ribosomal S6 kinase, or RSK; settings: cultured tumor cells; cited from earlier work
mice = assay: tail-suspension test; settings: mouse, in vivo
Method: An additional procedure for monitoring the effects of antidepressants involves suspending the mice by the tail from a lever and recording movements of the animal. The total duration of the test (usually about 6 minutes) can be divided into periods of agitation and immobility. Antidepressants will generally decrease the duration of immobility (Stem et al., Psychopharmacology 85(3) 367-70). A computerized version of this test, referred to as […]-TST has been developed and is well known to those of skill in that art as a primary screening test for antidepressant activity (Stem et al., Prog. Neuropsychpharmacol. Biol. Psychiatry 11(6)659-671, 1987). Additional devices for monitoring depression also are known to those of skill in the art (Nomura et al., Yakubutsu Seishiiz Kodo 12(5)207-13, 1992).
As described above, the murine responses in forced swim and tail suspension tests provides a model for determining depression. We tested C57BL/6J and DBA/2J mice in the forced-swim and tail-suspension tests. […] Test duration was 6 minutes and immobility, defined as the absence of all movement except minor movement required for the mouse to keep its head above the surface, was measured during the last 4 minutes. […] The duration of the test was 6 minutes and immobility, defined as the absence of all but respiratory movements, was measured during the last 4 minutes. […]

DBA/2J mice [4] = settings: baseline 100 seconds; cited from earlier work
C57BL/6J mice [5] = settings: 10 mg/kg, last 4 minutes of 6-minute forced swim, unmedicated 143 seconds; cited from earlier work

Chain of RSK2 (P51812 whole entry): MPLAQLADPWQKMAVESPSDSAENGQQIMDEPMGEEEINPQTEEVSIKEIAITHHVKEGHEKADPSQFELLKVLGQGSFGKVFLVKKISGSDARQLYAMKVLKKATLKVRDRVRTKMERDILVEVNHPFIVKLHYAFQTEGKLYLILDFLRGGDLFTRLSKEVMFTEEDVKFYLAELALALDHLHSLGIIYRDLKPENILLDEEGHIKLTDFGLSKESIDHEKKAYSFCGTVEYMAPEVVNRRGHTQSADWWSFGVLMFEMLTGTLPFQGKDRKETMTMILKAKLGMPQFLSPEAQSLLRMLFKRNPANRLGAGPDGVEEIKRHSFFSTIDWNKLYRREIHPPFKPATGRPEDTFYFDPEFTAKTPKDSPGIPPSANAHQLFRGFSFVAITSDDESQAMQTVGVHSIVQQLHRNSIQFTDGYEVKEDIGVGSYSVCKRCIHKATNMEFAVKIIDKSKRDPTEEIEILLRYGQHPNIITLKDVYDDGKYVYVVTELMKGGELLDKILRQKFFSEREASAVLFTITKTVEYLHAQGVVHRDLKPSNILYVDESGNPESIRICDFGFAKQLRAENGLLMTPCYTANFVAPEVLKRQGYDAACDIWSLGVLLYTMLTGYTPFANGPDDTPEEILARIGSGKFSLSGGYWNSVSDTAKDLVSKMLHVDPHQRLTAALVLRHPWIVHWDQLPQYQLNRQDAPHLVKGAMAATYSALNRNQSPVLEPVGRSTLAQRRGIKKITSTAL

Structure (SMILES): O=c1c(O)c(-c2ccc(O)cc2)oc2cc(O)cc(O)c12 [kaempferol]
- immobility time in forced-swim test (C57BL/6J mice [1]; dose dependent manner, within minutes after intraperitoneal injection): reduce immobility time
- inhibition of RSK2 (RSK2): inhibitor of the RSK2

Structure (SMILES): CC(C)CCN1c2nc(Nc3cc(F)c(O)c(F)c3)ncc2N(C)C(=O)C1C (stereo not shown) [BI-D1870]
- time of immobility in forced swim test (C57BL/6J mice [1]; FIG. 4): substantial reduction
- inhibition of p90 RSK (p90 RSK): specific inhibitor of the p90 RSK

Structure (SMILES): CC(=O)O[C@@H]1[C@@H](OC(C)=O)[C@H](C)O[C@@H](Oc2c(-c3ccc(O)cc3)oc3cc(O)cc(O)c3c2=O)[C@@H]1OC(C)=O [3Ac-SL0101]
- immobility in forced-swim test (C57BL/6J mice [1]; 20-fold higher dose): 0 s
- dose response of immobility in forced-swim test (C57BL/6J mice [1]; varying dosages, FIG. 3): monotonic dose-response effect
- immobility in forced-swim test (C57BL/6J mice [1]; very low dose, PBS/methanol control 127 seconds): 78 s
- effective dose in DBA/2J mice relative to C57BL/6J mice (DBA/2J mice [2]): approximately 10 fold lower dose
- inhibition of RSK activity [3]: inhibits the activity of this kinase
- immobility in tail-suspension test (mice): reduced immobility

Structure (SMILES): CNCCC(Oc1ccc(C(F)(F)F)cc1)c1ccccc1 (stereo not shown) [fluoxetine]
- immobility in forced swim (DBA/2J mice [4]): 50 s

Structure (SMILES): CNCCCN1c2ccccc2CCc2ccccc21 [desipramine]
- immobility in forced swim (DBA/2J mice [4]): 50 s
- immobility in forced swim (C57BL/6J mice [5]): 100 s
